Our source for the IC50 values is patent US8013006B2.

The test system of this test is HCV replicon. Description: microbe, parasite or virus in culture. The test is classed as cell-based.
The mark [1] stands for this setting: Replicon IC50 values are determined by firefly luciferase signal, bicistronic replicon, 2 days, read-out: Replicon IC5Os.
[2] abbreviates: Hepatitis C virus, 48 h, read-out: Replicon IC5Os.
The mark [3] stands for this setting: bicistronic HCV replicon, determined by firefly luciferase signal, cells cultured with compound for 2 days, read-out: Replicon IC5Os.
[4] abbreviates: Hepatitis C virus, 48 h, read-out: Replicon IC5Os μM.

Each structure is given as a SMILES string. Like-named read-outs stand apart in the source and are kept apart here.

Turning to `CCS(=O)(=O)N(C)c1ccc(-c2c(C#N)c3ccc(OC(F)F)cc3n2C)cc1` [Compound 687], the IC50 under setting [1] is less than 0.5 µM. Consider `COc1ccc2c(C#N)c(-c3ccc(N(C)S(C)(=O)=O)cc3)n(CC3CC3)c2c1` [Compound 688], for which, under setting [1], the IC50 lay within 0.5 to 2 µM. In the case of `CCS(=O)(=O)N(C)c1ccc(-c2c(C#N)c3ccc(OC)cc3n2C)cc1` [Compound 694], under setting [1], the IC50 was in the range of 0.5 to 2 µM.

`CCCn1c(-c2ccc(N(C)S(C)(=O)=O)cc2)c(C#N)c2ccc(OC)cc21` [Compound 695]: the IC50 under setting [1] lay in the range of 0.5 to 2 µM. With `COc1ccc2c(C#N)c(-c3ccc(N(C)S(C)(=O)=O)cc3)n(C(C)C)c2c1` [Compound 696], the IC50 under setting [1] is 0.5 to 2 µM.

For the compound `CCn1c(-c2ccc(N(C)S(=O)(=O)CCN3CCCC3)cc2)c(C#N)c2ccc(OC)cc21` [Compound 697], the IC50 under setting [2] was less than 0.5 µM. Still for that read-out and setting: the value for `CCn1c(-c2ccc(N(C)S(=O)(=O)CCN3CCSCC3)cc2)c(C#N)c2ccc(OC)cc21` [Compound 698] was 0.5 to 2 µM.

With `CCCS(=O)(=O)N1CCc2cc(-c3c(C#N)c4ccc(OC)cc4n3CC)ccc21` [Compound 703], the IC50 under setting [1] was in the range of 0.5 to 2 µM. With `CCn1c(-c2cccc(NS(=O)(=O)NCCCl)c2)c(C#N)c2ccc(OC)cc21` [Compound 704], the IC50 under setting [1] is more than 2 µM. In the case of `CCn1c(-c2cccc(N3CCNS3(=O)=O)c2)c(C#N)c2ccc(OC)cc21` [Compound 705], under setting [1], the IC50 is more than 2 µM. Take `CCCCn1c(-c2ccc(NS(=O)(=O)CCC)cc2)c(C#N)c2ccc(OC)cc21` [Compound 708]: the IC50 under setting [1] was in the range of 0.5 to 2 µM. On to `CCn1c(-c2ccc3[nH]ccc3c2)c(C#N)c2ccc(OC)cc21` [Compound 712], for which the IC50 under setting [1] was more than 2 µM. As to `N#Cc1cn(CC2CC2)c2cc(OC(F)(F)F)ccc12` [Compound 714], the IC50 under setting [1] lay in the range of 0.5 to 2 µM. In the case of `CCn1c(-c2ccc(NS(C)(=O)=O)cc2)c(C#N)c2ccc(OC(F)(F)F)cc21` [Compound 715], under setting [1], the IC50 was less than 0.5 µM.

Regarding `COc1ccc2c(C#N)c(-c3ccc(N4CCCS4(=O)=O)cc3)n(CC3CC3)c2c1` [Compound 716, 2-[4-(1,1-dioxidoisothiazolidin-2-yl)phenyl]-1-cyclopropylmethyl-6-methoxy-1H-indole-3-carbonitrile], the IC50 under setting [2] was 0.5 to 2 µM. Consider `COc1ccc2c(C#N)c(-c3ccc(S(=O)(=O)NC4CC4)cc3)n(CC3CCCC3)c2c1` [Compound 718], for which the IC50 under setting [1] lay in the range of 0.5 to 2 µM. On to `COc1ccc2c(C#N)c(-c3ccc(S(N)(=O)=O)cc3)n(CC3CCCC3)c2c1` [Compound 719], for which the IC50 under setting [1] was more than 2 µM.

Regarding `CCn1c(-c2ccc(N3CCCS3(=O)=O)cc2)c(C#N)c2ccc(OCCN3CCCC3)cc21` [Compound 728], the IC50 under setting [1] is less than 0.5 µM. For the compound `CCn1c(-c2ccc(N3CCCS3(=O)=O)cc2)c(C#N)c2ccc(OCCN3CCOCC3)cc21` [Compound 730], under setting [1], the IC50 is less than 0.5 µM. As for `N#Cc1c(-c2ccc(N)cc2)n(CC2CC2)c2cc(OC(F)F)ccc12` [Compound 733], under setting [1], the IC50 was more than 2 µM. The same measure, in the same setting: the value for `COCCOC(=O)Nc1ccc(-c2c(C#N)c3ccc(OC(F)F)cc3n2CC2CC2)cc1` [Compound 739] was more than 2 µM; that for `CCNC(=O)Nc1ccc(-c2c(C#N)c3ccc(OC(F)F)cc3n2CC2CC2)cc1` [Compound 740] was 0.5 to 2 µM.

Turning to `CCOC(=O)Nc1cccc(-c2c(C#N)c3ccc(OC(F)F)cc3n2CC2CC2)c1` [Compound 745], the IC50 under setting [2] is less than 0.5 µM. As to `CCCOC(=O)Nc1cccc(-c2c(C#N)c3ccc(OC(F)F)cc3n2CC2CC2)c1` [Compound 746], the IC50 under setting [1] was more than 2 µM. Take `CCCS(=O)(=O)N1CCc2ccc(-c3c(C#N)c4ccc(OC)cc4n3CC)cc21` [Compound 754]: the IC50 under setting [1] lay within 0.5 to 2 µM.

`CCn1c(-c2ccc(NC(=O)c3ccno3)cc2)c(C#N)c2ccccc21` [Compound 755]: the IC50 under setting [2] was less than 0.5 µM. For `CCn1c(-c2ccc(NC(=O)c3snnc3C)cc2)c(C#N)c2ccccc21` [Compound 756], the IC50 under setting [2] is less than 0.5 µM.

As for `CCC(=O)Nc1ccc(-c2c(C#N)c3ccc(OC(C)C)cc3n2CC)cc1` [Compound 759], under setting [2], the IC50 was less than 0.5 µM. The same measure, in the same setting: the value for `CCn1c(-c2ccc(NC(=O)C3CCC3)cc2)c(C#N)c2ccc(OC(C)C)cc21` [Compound 760] was less than 0.5 µM. `CCn1c(-c2ccc(NC(=O)c3ccc4nonc4c3)cc2)c(C#N)c2cc(OC)ccc21` [Compound 765]: the IC50 under setting [3] lay in the range of 0.5 to 2 µM. Regarding `CCS(=O)(=O)N(C(C)=O)c1ccc(-c2cc3ccc(OC)cc3n2C(=O)OC(C)(C)C)cc1` [Compound 769], under setting [3], the IC50 is more than 2 µM. In the case of `CCn1c(-c2cccc(N3CCNC3=O)c2)c(C#N)c2ccc(OC)cc21` [Compound 770], under setting [3], the IC50 is more than 2 µM. Take `CCCn1c(-c2ccc(N3CCCS3(=O)=O)cc2)c(C#N)c2ccc(OCCOC(C)=O)cc21` [Compound 775]: the IC50 under setting [3] was in the range of 0.5 to 2 µM. With `CCOc1ccc2c(C#N)c(-c3ccc(N4CCNC4=O)cc3)n(CC)c2c1` [Compound 778], under setting [3], the IC50 was less than 0.5 µM. Turning to `CCCn1c(-c2cccc(N3CCCS3(=O)=O)c2)c(C#N)c2ccc(OC)cc21` [Compound 783], the IC50 under setting [3] was more than 2 µM. As to `CCn1c(N2CCC(NC(=O)OC(C)(C)C)CC2)c(C#N)c2ccc(C(F)(F)F)cc21` [Compound 786], under setting [3], the IC50 is more than 2 µM. Still for that read-out and setting: the value for `COC(=O)Nc1cccc(-c2c(C#N)c3ccc(OC)cc3n2Cc2ccccc2)c1` [Compound 787] was more than 2 µM. `CCCCOC(=O)Nc1cccc(-c2c(C#N)c3ccc(OC)cc3n2Cc2ccccc2)c1` [Compound 788]: the IC50 under setting [3] is more than 2 µM.

For the compound `CCn1c(-c2ccc(NS(=O)(=O)C(C)C)cc2)c(C#N)c2cc(OC)ccc21` [Compound 790], under setting [4], the IC50 is less than 0.5 µM.

On to `CCn1c(-c2ccc(N)cc2)c(C#N)c2cc(O)ccc21` [Compound 797], for which the IC50 under setting [3] fell in the range of 0.5 to 2 µM. The same measure, in the same setting: the value for `CCn1c(-c2ccc(NC(=O)c3cc(C)on3)cc2)c(C#N)c2ccc(OC(C)C)cc21` [Compound 798] was more than 2 µM. Regarding `CCCC(=O)Nc1ccc(-c2c(C#N)c3ccc(OC)cc3n2CC)cc1` [Compound 799], the IC50 under setting [4] was less than 0.5 µM. Turning to `CCn1c(-c2ccc(NC(=O)c3ccco3)cc2)c(C#N)c2ccc(OC)cc21` [Compound 803], under setting [3], the IC50 was more than 2 µM.

As to `CCn1c(-c2ccc(NC(=O)c3cc(C)on3)cc2)c(C#N)c2ccc(OC)cc21` [Compound 804], the IC50 under setting [3] is more than 2 µM.

Consider `N#Cc1c(-c2ccc(N3CCCC3=O)cc2)n(CC2CC2)c2cc(OC(F)F)ccc12` [Compound 806], for which the IC50 under setting [3] lay within 0.5 to 2 µM. As to `CCCn1c(-c2ccc(N3CCCC3=O)cc2)c(C#N)c2ccc(OC(F)F)cc21` [Compound 808], the IC50 under setting [3] is 0.5 to 2 µM. Still for that read-out and setting: the value for `CC(C)n1c(-c2ccc(N3CCCC3=O)cc2)c(C#N)c2ccc(OC(F)F)cc21` [Compound 809] was 0.5 to 2 µM. On to `N#Cc1c(-c2ccc(N3CCCC3=O)cc2)n(C2CCC2)c2cc(OC(F)F)ccc12` [Compound 810], for which, under setting [3], the IC50 lay within 0.5 to 2 µM. For `N#Cc1c(-c2ccc(N)cc2)n(C2CCC2)c2cc(OC(F)F)ccc12` [Compound 811], the IC50 under setting [3] was more than 2 µM. The same measure, in the same setting: the value for `CCCS(=O)(=O)Nc1ccc(-c2c(C#N)c3ccc(OC(F)F)cc3n2C2CCC2)cc1` [Compound 812] was 0.5 to 2 µM; that for `N#Cc1c(-c2ccc(NS(=O)(=O)C3CC3)cc2)n(C2CCC2)c2cc(OC(F)F)ccc12` [Compound 813] was less than 0.5 µM; that for `CCCNC(=O)Nc1cccc(-c2c(C#N)c3ccc(OC)cc3n2Cc2ccccc2)c1` [Compound 817] was more than 2 µM. On to `CCn1c(-c2cc(N3CCOC3=O)ccc2F)c(C#N)c2ccc(OC(C)C)cc21` [Compound 820], for which the IC50 under setting [3] lay in the range of 0.5 to 2 µM.

With `CCn1c(-c2ccc(F)c(N3CCOC3=O)c2)c(C#N)c2ccc(OC(C)C)cc21` [Compound 821], the IC50 under setting [3] was more than 2 µM. As to `COCCOC(=O)Nc1ccc(-c2c(C#N)c3ccc(OC(F)F)cc3n2C2CCC2)cc1` [Compound 823], the IC50 under setting [3] was more than 2 µM. With `CCCn1c(-c2ccc(NC(=O)OC(C)C)cc2)c(C#N)c2ccc(OC(F)F)cc21` [Compound 824], the IC50 under setting [3] is more than 2 µM.

With `CCCn1c(-c2ccc(NC(=O)OCCOC)cc2)c(C#N)c2ccc(OC(F)F)cc21` [Compound 825], the IC50 under setting [3] is more than 2 µM. In the case of `CCCn1c(-c2ccc(NC(=O)OCCF)cc2)c(C#N)c2ccc(OC(F)F)cc21` [Compound 826], the IC50 under setting [3] was in the range of 0.5 to 2 µM. As to `N#Cc1c(-c2ccc(N3CCCS3(=O)=O)cc2)[nH]c2cc(OC(F)(F)F)ccc12` [Compound 829], the IC50 under setting [3] was 0.5 to 2 µM. In the case of `CCn1c(-c2ccc(OC(F)F)cc2)c(C#N)c2ccc(NS(=O)(=O)CC)cc21` [Compound 830], the IC50 under setting [3] is 0.5 to 2 µM.

Consider `CCCS(=O)(=O)Nc1ccc2c(C#N)c(-c3ccc(OCC)cc3)n(CC)c2c1` [Compound 836], for which the IC50 under setting [3] is more than 2 µM. On to `CCOc1ccc(-c2c(C#N)c3ccc(NS(=O)(=O)C4CC4)cc3n2CC)cc1` [Compound 837], for which the IC50 under setting [3] is more than 2 µM.

On to `CCn1c(-c2ccc(N(C)S(=O)(=O)C3CC3)cc2)c(C#N)c2ccc(OCCF)cc21` [Compound 840], for which the IC50 under setting [3] is more than 2 µM.

For the compound `CCCS(=O)(=O)N1CCN(c2c(C#N)c3ccc(C(F)(F)F)cc3n2CC)CC1` [Compound 841], the IC50 under setting [3] is more than 2 µM.

On to `CCn1c(N2CCN(S(=O)(=O)c3ccccc3)CC2)c(C#N)c2ccc(C(F)(F)F)cc21` [Compound 843], for which, under setting [3], the IC50 was more than 2 µM. On the same count and under the same terms, the value for `CCCn1c(-c2ccc(NC(=O)NC(C)C)cc2)c(C#N)c2ccc(OC)cc21` [Compound 846] was 0.5 to 2 µM. In the case of `CCCCNC(=O)Nc1ccc(-c2c(C#N)c3ccc(OC)cc3n2CCC)cc1` [Compound 847], the IC50 under setting [3] lay within 0.5 to 2 µM. Take `CCCn1c(-c2ccc(NC(=O)OC)cc2)c(C#N)c2ccc(OC)cc21` [Compound 849]: the IC50 under setting [3] lay in the range of 0.5 to 2 µM. Consider `CCCn1c(-c2ccc(N(CC)S(=O)(=O)CC)cc2)c(C#N)c2ccc(OC)cc21` [Compound 852], for which the IC50 under setting [3] was in the range of 0.5 to 2 µM. The same measure, in the same setting: the value for `CCn1c(-c2ccc(C(=O)N3CC3)cc2)c(C#N)c2ccc(OC)cc21` [Compound 853] was less than 0.5 µM. As for `CCn1c(-c2ccc(NC(=O)C3CC3)cc2)c(C#N)c2ccccc21` [Compound 854], the IC50 under setting [4] lay in the range of 0.5 to 2 µM.
